The text below walks through data of ChEMBL document CHEMBL1697781, “Assessment of the health effects of chemicals in humans: II. Construction of an adverse effects database for QSAR modeling” (Curr Drug Discov Technol, 2004).

Holding throughout (details): human
Data set [1] relates to Hepatotoxicity. In words: FDA HLAED, liver enzyme composite activity.
Data set [2] relates to Hepatotoxicity. The data set is described as follows: FDA HLAED, alkaline phosphatase increase.
The test system of data set [3] is Hepatotoxicity. The data set is described as follows: FDA HLAED, serum glutamic oxaloacetic transaminase (SGOT) increase.
The subject of data set [4] is Hepatotoxicity. The data set is described as follows: FDA HLAED, serum glutamic pyruvic transaminase (SGPT) increase.
Data set [5] has as its system Hepatotoxicity. In words: FDA HLAED, lactate dehydrogenase (LDH) increase.
Data set [6] concerns Hepatotoxicity. In words: FDA HLAED, gamma-glutamyl transferase (GGT) increase.
Wherever GGT Increase - Index Value is given: reference of the scale not given here.
Wherever LDH Increase - Index Value is given: reference of the scale not given here.

`NC1=NC(=O)C(c2ccccc2)O1` (stereo not given) [PEMOLINE]: in the data set with Hepatotoxicity [1], the “Composite Activity - Active” value was 4, the “Composite Activity - Marginal” value worked out at 0 and the “Composite Activity - Score” value is given as “Active”. Also, in the data set with Hepatotoxicity [2], the “Alkaline Phosphatase Increase - Activity Score” value is recorded as “Active”, the “Alkaline Phosphatase Increase - Index Value” came out at 14 and the “Alkaline Phosphatase Increase - Number of Reports” value is recorded as “>= 4”. In the data set on Hepatotoxicity [3], the “SGOT Increase - Activity Score” value is recorded as “Active”, the “SGOT Increase - Index Value” is on record as 22.7 and the “SGOT Increase - Number of Reports” value is reported as “>= 4”. Moreover, in the data set with Hepatotoxicity [4], the “SGPT Increase - Activity Score” value was “Active”, the “SGPT Increase - Index Value” was 23.5 and the “SGPT Increase - Number of Reports” value is reported as “>= 4”. In addition, in the data set with Hepatotoxicity [5], the “LDH Increase - Activity Score” value is recorded as “Active”, the “LDH Increase - Index Value” is given as 6.2 and the “LDH Increase - Number of Reports” value is listed as “>= 4”.
Take `O=P1(N(CCCl)CCCl)NCCCO1` (stereo not given) [CYCLOPHOSPHAMIDE ANHYDROUS]: in the data set with Hepatotoxicity [1] (Liver), the “Composite Activity - Active” value came to 4, the “Composite Activity - Marginal” value amounted to 0 and the “Composite Activity - Score” value is listed as “Active”. For the same compound, in the data set with Hepatotoxicity [2], the “Alkaline Phosphatase Increase - Activity Score” value was “Active”, the “Alkaline Phosphatase Increase - Index Value” is 4.6 and the “Alkaline Phosphatase Increase - Number of Reports” value is “>= 4”. In addition, in the data set on Hepatotoxicity [3], the “SGOT Increase - Activity Score” value was “Active”, the “SGOT Increase - Index Value” was found to be 8.5 and the “SGOT Increase - Number of Reports” value was “>= 4”. For the same compound, in the data set with Hepatotoxicity [4], the “SGPT Increase - Activity Score” value is “Active”, the “SGPT Increase - Index Value” was 8.5 and the “SGPT Increase - Number of Reports” value was “>= 4”. Further, in the data set with Hepatotoxicity [5], the “LDH Increase - Activity Score” value is “Active”, the “LDH Increase - Index Value” stood at 8.5 and the “LDH Increase - Number of Reports” value was “>= 4”.
In the case of `O=NN(CCCl)C(=O)NCCCl` [CARMUSTINE], in the data set on Hepatotoxicity [1], the “Composite Activity - Active” value is on record as 1 and the “Composite Activity - Marginal” value was 0. In the data set with Hepatotoxicity [5], the “LDH Increase - Activity Score” value is on record as “Active”, the “LDH Increase - Index Value” is 14.6 and the “LDH Increase - Number of Reports” value is given as “>= 4”.
In the case of `Oc1ncnc2[nH]ncc12` [ALLOPURINOL], in the data set on Hepatotoxicity [1], the “Composite Activity - Active” value worked out at 4, the “Composite Activity - Marginal” value is 0 and the “Composite Activity - Score” value is listed as “Active”. Further, in the data set with Hepatotoxicity [2], the “Alkaline Phosphatase Increase - Activity Score” value is given as “Active”, the “Alkaline Phosphatase Increase - Index Value” is 4.7 and the “Alkaline Phosphatase Increase - Number of Reports” value was “>= 4”. Besides, in the data set on Hepatotoxicity [3], the “SGOT Increase - Activity Score” value is recorded as “Active”, the “SGOT Increase - Index Value” is 15 and the “SGOT Increase - Number of Reports” value is on record as “>= 4”. In the data set on Hepatotoxicity [4], the “SGPT Increase - Activity Score” value was “Active”, the “SGPT Increase - Index Value” is recorded as 9.4 and the “SGPT Increase - Number of Reports” value was “>= 4”. Further, in the data set on Hepatotoxicity [6], the “GGT Increase - Activity Score” value is “Active”, the “GGT Increase - Index Value” is listed as 9.4 and the “GGT Increase - Number of Reports” value was “>= 4”.
As for `O=c1[nH]cc(F)c(=O)[nH]1` [FLUOROURACIL], in the data set with Hepatotoxicity [1], the “Composite Activity - Active” value is given as 1 and the “Composite Activity - Marginal” value was found to be 1. Further, in the data set on Hepatotoxicity [2], the “Alkaline Phosphatase Increase - Activity Score” value is given as “Active”, the “Alkaline Phosphatase Increase - Index Value” amounted to 5.5 and the “Alkaline Phosphatase Increase - Number of Reports” value is recorded as “>= 4”. Moreover, in the data set with Hepatotoxicity [5], the “LDH Increase - Activity Score” value is given as “Marginally Active”, the “LDH Increase - Index Value” is reported as 3.6 and the “LDH Increase - Number of Reports” value is listed as “>= 4”.
Consider `CN(Cc1cnc2nc(N)nc(N)c2n1)c1ccc(C(=O)N[C@@H](CCC(=O)O)C(=O)O)cc1` [METHOTREXATE], for which, in the data set on Hepatotoxicity [1], the “Composite Activity - Active” value was 2, the “Composite Activity - Marginal” value worked out at 1 and the “Composite Activity - Score” value is on record as “Active”. In the data set on Hepatotoxicity [3], the “SGOT Increase - Activity Score” value was “Active”, the “SGOT Increase - Index Value” is 5.3 and the “SGOT Increase - Number of Reports” value is recorded as “>= 4”. For the same compound, in the data set with Hepatotoxicity [4], the “SGPT Increase - Activity Score” value is “Active”, the “SGPT Increase - Index Value” is on record as 6.4 and the “SGPT Increase - Number of Reports” value is recorded as “>= 4”. For the same compound, in the data set with Hepatotoxicity [5], the “LDH Increase - Activity Score” value is given as “Marginally Active”, the “LDH Increase - Index Value” is 3.5 and the “LDH Increase - Number of Reports” value was “>= 4”.
